The structures appear in SMILES notation. pIC50: −log10 of the molar value.

Assay [1] addresses T1, Type-2 angiotensin II receptor (Homo sapiens, UniProt P50052).
T1 sequence (P50052 whole entry): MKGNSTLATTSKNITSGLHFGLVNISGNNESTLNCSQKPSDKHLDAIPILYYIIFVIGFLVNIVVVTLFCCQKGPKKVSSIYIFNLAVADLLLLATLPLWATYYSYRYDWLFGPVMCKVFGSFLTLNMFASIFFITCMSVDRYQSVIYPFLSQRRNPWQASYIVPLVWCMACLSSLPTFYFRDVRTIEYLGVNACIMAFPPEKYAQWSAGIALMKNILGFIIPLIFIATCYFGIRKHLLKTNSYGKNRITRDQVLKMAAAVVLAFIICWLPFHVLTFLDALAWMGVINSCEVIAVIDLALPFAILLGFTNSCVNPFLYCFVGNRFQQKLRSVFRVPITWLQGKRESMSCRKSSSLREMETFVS
Nature of the assay: Binding affinity to AT2 receptor (unknown origin).

The target in assay [2] is T2, Type-1 angiotensin II receptor (Homo sapiens, UniProt P30556).
T2 sequence (P30556 whole entry): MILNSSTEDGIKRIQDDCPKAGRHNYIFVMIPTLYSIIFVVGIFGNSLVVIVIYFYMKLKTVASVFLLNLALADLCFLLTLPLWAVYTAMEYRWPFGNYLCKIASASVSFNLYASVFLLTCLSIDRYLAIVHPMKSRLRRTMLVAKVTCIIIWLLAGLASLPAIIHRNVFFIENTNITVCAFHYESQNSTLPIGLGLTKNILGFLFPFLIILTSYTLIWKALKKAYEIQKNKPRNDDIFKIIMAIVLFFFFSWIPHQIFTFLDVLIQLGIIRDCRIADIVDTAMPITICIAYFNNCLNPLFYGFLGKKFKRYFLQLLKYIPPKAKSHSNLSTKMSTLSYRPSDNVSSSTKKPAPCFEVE
Nature of the assay: Binding affinity to AT1 receptor (unknown origin).

As for `CCCCc1nn(C)c(=O)n1Cc1ccc(-n2cccc2-c2nnn[nH]2)cc1`, the pIC50 was under 5.00 in assay [1] and 8.60 in assay [2].

(Values after ChEMBL document CHEMBL3091458, “Design, synthesis, and biological evaluation of 1,2,4-triazole bearing 5-substituted biphenyl-2-sulfonamide derivatives as potential antihypertensive candidates” (Bioorg Med Chem, 2013).)
